These results are taken from PubChem BioAssay (NCI).

“And” between values parts separate entries of the source, which are not always exact repeats. Equal values may be shown once.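 Protocol summary: plate cells (96-well), add compound at 5 concentrations, incubate 48 h, interpolate endpoints linearly. GI50 marks 50% less growth. TGI: total growth inhibition.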

For one assay, the system named is TK-10 renal. Description: DTP human tumour cell line panel, 48 h.
As usually defined, the GI50 is the concentration at which growth is held to half of that of the control. As a reminder, the TGI is the concentration giving total growth inhibition. Higher therefore signals less potent growth arrest. For the compound `Cc1ccc(C(=O)Nc2ccc(CN3CCN(C)CC3)c(C(F)(F)F)c2)cc1C#Cc1cnc(N)c2ccc(F)cc12`, the GI50 was 0.416 µM and the total growth inhibition concentration (TGI) was determined as 2.72 µM.

For the compound `CC1(C)CCC(C)(C)c2cc(C(=O)Nc3ccc(C(=O)O)cc3)ccc21`, the TGI is more than 73.3 µM.

Consider `CC1=C(C(=O)NC2CCCCC2)CC(C(=O)NC2CCCCC2)=C(C)N1`, for which the TGI is more than 100 µM.

With `Cn1cc(C2=C(c3cn(C)c4ccc(N)cc34)C(=O)NC2=O)c2ccccc21`, the GI50 was 23.1 µM and the TGI was more than 25 µM.

With `S=C(N/N=C/c1cc(Cl)cc(Cl)c1)NC12CC3CC(CC(C3)C1)C2`, the GI50 was 4.44 µM and the TGI was determined as 19.1 µM.

Take `CCCCN1C(=O)CC2[C@@H]3CCc4cc(OC)ccc4C3CC[C@]2(C)C1=O` (stereo partly specified): the TGI was more than 10 µM.

For `COc1cc2cc(Oc3ccc(NC(=O)c4cccc(C(F)(F)F)c4)cc3)c(C)nc2cc1OC`, the GI50 is 5.18 µM and the TGI is more than 100 µM.

Take `COc1cc(/C=C2\CN(C)CC3=C2Nc2nc(SC)[nH]c(=O)c2C3c2cc(OC)c(OC)c(OC)c2)cc(OC)c1OC` (stereo unspecified): the GI50 is 6.06 µM and the TGI turned out to be 18.9 µM.

With `Cc1nc(SCC(N)=O)c2sc(=S)n(-c3ccccc3)c2n1`, the TGI is more than 10 µM.

Turning to `O=C(CC(C(=O)c1cccs1)c1ccc2c(c1)OCO2)c1ccc(Br)cc1` (stereo unspecified), the TGI is more than 100 µM.

In turn, `COc1cc(-c2oc3ccccc3c(=O)c2O)cc(OC)c1OC` showed a TGI of more than 88.5 µM.

Turning to `CSc1ccc(/C=C2\CNC/C(=C\c3ccc(SC)cc3)C2=O)cc1`, the TGI was more than 165 µM.

As for `Clc1ccc(COC(Cn2ccnc2)c2ccc(Cl)cc2Cl)cc1` (stereo unspecified), the GI50 is 2.68 µM; the TGI was 7.15 µM and 29 µM and 23.9 µM.

On to `CC[C@H](C)[C@H](NC(=O)c1cnccn1)C(=O)N(C)[C@H](C[C@@H](OC(C)=O)c1nc(C(=O)N[C@@H](Cc2ccccc2)C[C@H](C)C(=O)OC)cs1)C(C)C`, for which the GI50 was 7.18 µM and the TGI is more than 33.3 µM.

`Nc1c(C(=O)Nc2ccc([As](=O)(O)O)cc2)cnc2nnnn12` showed a TGI of more than 100 µM.

For the compound `CC(C)n1c(/C=C/[C@@H](O)C[C@@H](O)CC(=O)O)c(-c2ccc(F)cc2)c2ccccc21`, the GI50 is 33.7 µM and 7.85 µM; the TGI is more than 100 µM.

For `N#CC(C#N)SCc1ccccc1`, the TGI was more than 100 µM.

In the case of `CCOc1ccc(NCC2CC/C(=C\C=C\c3ccccc3)C2=O)cc1` (stereo unspecified), the TGI is more than 50.7 µM.

The next assay deals with HCC-2998 colon. Description: DTP human tumour cell line panel, 48 h.
On to `Cc1ccc(C(=O)Nc2ccc(CN3CCN(C)CC3)c(C(F)(F)F)c2)cc1C#Cc1cnc(N)c2ccc(F)cc12`, for which the GI50 is 0.377 µM and the TGI is 0.798 µM.

In turn, `CC1(C)CCC(C)(C)c2cc(C(=O)Nc3ccc(C(=O)O)cc3)ccc21` registered a TGI of 37.2 µM.

Consider `CC1=C(C(=O)NC2CCCCC2)CC(C(=O)NC2CCCCC2)=C(C)N1`, for which the TGI is more than 100 µM.

Regarding `Cn1cc(C2=C(c3cn(C)c4ccc(N)cc34)C(=O)NC2=O)c2ccccc21`, the GI50 was more than 25 µM and the TGI is more than 25 µM.

Consider `S=C(N/N=C/c1cc(Cl)cc(Cl)c1)NC12CC3CC(CC(C3)C1)C2`, for which the GI50 was more than 100 µM and the TGI is more than 100 µM.

Turning to `CCCCN1C(=O)CC2[C@@H]3CCc4cc(OC)ccc4C3CC[C@]2(C)C1=O` (stereo partly specified), the TGI is more than 10 µM.

As for `COc1cc2cc(Oc3ccc(NC(=O)c4cccc(C(F)(F)F)c4)cc3)c(C)nc2cc1OC`, the GI50 is 8.03 µM and the TGI was more than 100 µM.

For `COc1cc(/C=C2\CN(C)CC3=C2Nc2nc(SC)[nH]c(=O)c2C3c2cc(OC)c(OC)c(OC)c2)cc(OC)c1OC` (stereo unspecified), the GI50 was 1.91 µM and the TGI worked out at 3.63 µM.

`Cc1nc(SCC(N)=O)c2sc(=S)n(-c3ccccc3)c2n1` came in with a TGI of more than 10 µM.

In the case of `O=C(CC(C(=O)c1cccs1)c1ccc2c(c1)OCO2)c1ccc(Br)cc1` (stereo unspecified), the TGI is more than 100 µM.

`COc1cc(-c2oc3ccccc3c(=O)c2O)cc(OC)c1OC` returned a TGI of more than 100 µM.

As to `CSc1ccc(/C=C2\CNC/C(=C\c3ccc(SC)cc3)C2=O)cc1`, the GI50 is > 371 µM and 150 µg/mL; the TGI was > 371 µM and 150 µg/mL.

Turning to `Clc1ccc(COC(Cn2ccnc2)c2ccc(Cl)cc2Cl)cc1` (stereo unspecified), the GI50 is 2.72 µM; the TGI was 10.5 µM and 29.6 µM and 30 µM.

In the case of `CC[C@H](C)[C@H](NC(=O)c1cnccn1)C(=O)N(C)[C@H](C[C@@H](OC(C)=O)c1nc(C(=O)N[C@@H](Cc2ccccc2)C[C@H](C)C(=O)OC)cs1)C(C)C`, the GI50 is 1.35 µM and the TGI is more than 33.3 µM.

The compound `Nc1c(C(=O)Nc2ccc([As](=O)(O)O)cc2)cnc2nnnn12` came in with a total growth inhibition concentration (TGI) of more than 100 µM.

Consider `CC(C)n1c(/C=C/[C@@H](O)C[C@@H](O)CC(=O)O)c(-c2ccc(F)cc2)c2ccccc21`, for which the GI50 was 10.4 µM and 28.4 µM; the TGI is more than 100 µM.

In turn, `N#CC(C#N)SCc1ccccc1` yielded a TGI of more than 100 µM.

In turn, `CCOc1ccc(NCC2CC/C(=C\C=C\c3ccccc3)C2=O)cc1` (stereo unspecified) displayed a TGI of more than 72.4 µM.

The next assay has as its system COLO 205 colon. Description: DTP human tumour cell line panel, 48 h.
Take `Cc1ccc(C(=O)Nc2ccc(CN3CCN(C)CC3)c(C(F)(F)F)c2)cc1C#Cc1cnc(N)c2ccc(F)cc12`: the GI50 was 0.301 µM and the TGI came to 0.933 µM.

Compound `CC1(C)CCC(C)(C)c2cc(C(=O)Nc3ccc(C(=O)O)cc3)ccc21` registered a TGI of 36 µM.

`CC1=C(C(=O)NC2CCCCC2)CC(C(=O)NC2CCCCC2)=C(C)N1` yielded a TGI of more than 100 µM.

Turning to `Cn1cc(C2=C(c3cn(C)c4ccc(N)cc34)C(=O)NC2=O)c2ccccc21`, the GI50 was 6 µM and the concentration for total growth inhibition (TGI) was more than 20.5 µM.

In the case of `S=C(N/N=C/c1cc(Cl)cc(Cl)c1)NC12CC3CC(CC(C3)C1)C2`, the GI50 is 7.13 µM and the TGI is more than 100 µM.

For `CCCCN1C(=O)CC2[C@@H]3CCc4cc(OC)ccc4C3CC[C@]2(C)C1=O` (stereo partly specified), the TGI was more than 10 µM.

`COc1cc2cc(Oc3ccc(NC(=O)c4cccc(C(F)(F)F)c4)cc3)c(C)nc2cc1OC`: the GI50 was 4.65 µM and the concentration for total growth inhibition (TGI) is more than 100 µM.

Regarding `COc1cc(/C=C2\CN(C)CC3=C2Nc2nc(SC)[nH]c(=O)c2C3c2cc(OC)c(OC)c(OC)c2)cc(OC)c1OC` (stereo unspecified), the GI50 is 2.11 µM and the TGI is 4.73 µM.
